In patent US20120220624A1, “PYRAZOLO [3,4-B] PYRIDIN-4-ONE KINASE INHIBITORS” (priority 2009, published 2012):

target: T1, CDK5-p25 kinase (Homo sapiens, UniProt Q00535); assay: CDK5-p25 kinase enzymatic assay; format: biochemical; conditions: 0.3 nM CDK5-p25, 1.5 uM peptide, 5 uM ATP; X marks bin 50 nM-99 nM; read-out: IC50 potency, 50 nM-99 nM
T1 construct: purchased Invitrogen PV4677
Description: CDK5-p25 kinase (Invitrogen PV4677) enzymatic activity was measured using electrophoretic separation and fluorescent detection to monitor phosphorylation of a fluorescently labeled histone H1-derived peptide substrate, FL29 (5-FAM-GGGPATPKKAKKL-CONH2, Caliper #760429)
First, 0.25 uL of serially diluted compound in DMSO at 100× concentration was transferred into each well of a 384-well polystyrene assay plate. To this was added 15 uL of a 1.67× enzyme solution (500 pM enzyme, 1 mM DTT (Sigma D9779), 1× reconstitution buffer with protease inhibitor (Caliper #700329 proprietary formulation)), followed by centrifugation for 1 min at 1000 rpm, and incubation for 5-15 min at room temperature to allow binding of compound to enzyme. To initiate the reaction, 10 uL of substrate/ATP mix (245 mM Hepes pH 7.5, 0.003% Brij 35, 0.004% Tween, 12.75 uM ATP, 3.75 uM FL29 peptide) were added to each well, followed by centrifugation at 1000 rpm for 1 min. The reaction was then incubated at room temperature for 30 min. Final assay conditions were: 0.3 nM CDK5-p25, 1.5 uM peptide, 5 uM ATP, 0.6 mM DTT, 1% DMSO, 98 mM HEPES pH 7.5.
After incubation, reactions were quenched by the addition of 45 uL Caliper termination solution (Caliper proprietary formula), followed by centrifugation at 1000 rpm for 1 min. Extent of reaction (percentage conversion of substrate to phosphorylated product) was then measured using the Caliper EZ II reader. Dose-response curves were created by plotting the inhibition of enzyme activity (normalized relative to vehicle treated and no ATP control reactions) as a function of the log of compound concentration. The curve was analyzed using a four parameter logistical fit to calculate IC50 values.

T1 sequence (Q00535 whole entry): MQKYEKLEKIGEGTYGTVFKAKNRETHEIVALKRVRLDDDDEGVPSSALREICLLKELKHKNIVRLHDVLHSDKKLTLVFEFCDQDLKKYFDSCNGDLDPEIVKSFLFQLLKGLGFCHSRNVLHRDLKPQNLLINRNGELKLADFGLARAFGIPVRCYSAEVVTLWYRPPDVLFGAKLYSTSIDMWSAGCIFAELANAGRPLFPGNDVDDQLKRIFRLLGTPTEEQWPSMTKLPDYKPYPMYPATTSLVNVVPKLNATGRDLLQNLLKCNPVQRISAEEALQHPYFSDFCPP
T1 sequence (Q15078 99-307 partner limits assumed): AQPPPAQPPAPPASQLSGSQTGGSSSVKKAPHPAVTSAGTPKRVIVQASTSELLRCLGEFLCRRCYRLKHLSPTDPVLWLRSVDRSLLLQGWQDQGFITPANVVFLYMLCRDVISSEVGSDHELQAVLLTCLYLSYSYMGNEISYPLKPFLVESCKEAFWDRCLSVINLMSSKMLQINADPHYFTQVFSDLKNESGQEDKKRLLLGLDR

Row | IC50 [nM] | SMILES
1 | 50 to 99 | O=c1cc(Cc2ccc(-c3ccccc3)cc2)[nH]c2n[nH]c(C3CCC3)c12 [Example 3, 6-(biphenyl-4-ylmethyl)-3-cyclobutyl-2,7-dihydro-4H-pyrazolo[3,4-b]pyridin-4-one]
2 | 50 to 99 | CC(C)(C)c1ccc(Cc2cc(=O)c3c(C4CCC4)[nH]nc3[nH]2)cc1 [Example 4, 6-(4-tert-butylbenzyl)-3-cyclobutyl-2,7-dihydro-4H-pyrazolo[3,4-b]pyridin-4-one]

same assay, conditions: 0.3 nM CDK5-p25, 1.5 uM peptide, 5 uM ATP; X marks bin 100 nM-499 nM; read-out: IC50 potency, 100 nM-499 nM

Row | IC50 [nM] | SMILES
3 | 100 to 499 | O=c1cc(Cc2ccccc2-c2ccccc2)[nH]c2n[nH]c(C3CCC3)c12 [Example 5, 6-(biphenyl-2-ylmethyl)-3-cyclobutyl-2,7-dihydro-4H-pyrazolo[3,4-b]pyridin-4-one]
4 | 100 to 499 | O=c1cc(CC2CCCCC2)[nH]c2n[nH]c(C3CCC3)c12 [Example 7, 3-cyclobutyl-6-(cyclohexylmethyl)-2,7-dihydro-4H-pyrazolo[3,4-b]pyridin-4-one]
5 | 100 to 499 | O=c1cc(Cc2c(F)cccc2Cl)[nH]c2n[nH]c(C3CCC3)c12 [Example 2, 6-(2-chloro-6-fluorobenzyl)-3-cyclobutyl-2,7-dihydro-4H-pyrazolo[3,4-b]pyridin-4-one]

same assay, conditions: 0.3 nM CDK5-p25, 1.5 uM peptide, 5 uM ATP; X marks bin 500 nM-3 μM; read-out: IC50 potency, 500 nM-3 μM

Row | IC50 [nM] | SMILES
6 | 500 to 3000 | O=c1cc(Cc2ccc3ccccc3c2)[nH]c2n[nH]c([C@H]3C[C@@H](O)C3)c12 [Example 11, 3-(cis-3-hydroxycyclobutyl)-6-(naphthalen-2-ylmethyl)-2,7-dihydro-4H-pyrazolo[3,4-b]pyridin-4-one]
7 | 500 to 3000 | O=c1cc(Cc2ccc3ccccc3c2)[nH]c2n[nH]c(C3CC(F)(F)C3)c12 [Example 9, 3-(3,3-difluorocyclobutyl)-6-(naphthalen-2-ylmethyl)-2,7-dihydro-4H-pyrazolo[3,4-b]pyridin-4-one]

same assay, conditions: 0.3 nM CDK5-p25, 1.5 uM peptide, 5 uM ATP; X marks bin <50 nM; read-out: IC50 potency, <50 nM

Row | IC50 [nM] | SMILES
8 | < 50 | O=c1cc(Cc2ccc(Cl)c(Cl)c2)[nH]c2n[nH]c(C3CCC3)c12 [Example 6, 3-cyclobutyl-6-(3,4-dichlorobenzyl)-2,7-dihydro-4H-pyrazolo[3,4-b]pyridin-4-one]
9 | < 50 | O=c1cc(Cc2ccc3ccccc3c2)[nH]c2n[nH]c(C3CCC3)c12 [Example 1, 3-cyclobutyl-6-(2-naphthylmethyl)-2,7-dihydro-4H-pyrazolo[3,4-b]pyridin-4-one]
10 | < 50 | O=c1cc(Cc2ccc3ccccc3c2)[nH]c2n[nH]c([C@H]3C[C@H](O)C3)c12 [Example 10, 3-(trans-3-hydroxycyclobutyl)-6-(naphthalen-2-ylmethyl)-2,7-dihydro-4H-pyrazolo[3,4-b]pyridin-4-one]
11 | < 50 | O=C1CC(c2[nH]nc3[nH]c(Cc4ccc5ccccc5c4)cc(=O)c23)C1 [Example 12, 6-(naphthalen-2-ylmethyl)-3-(3-oxocyclobutyl)-2,7-dihydro-4H-pyrazolo[3,4-b]pyridin-4-one]
12 | < 50 | O=c1cc(Cc2cc(F)cc(Cl)c2)[nH]c2n[nH]c(C3CCC3)c12 [Example 8, 6-(3-chloro-5-fluorobenzyl)-3-cyclobutyl-2,7-dihydro-4H-pyrazolo[3,4-b]pyridin-4-one]
